The target in data set [1] is BRD4(1) first bromodomain (Homo sapiens, UniProt O60885). The following applies: cited from earlier work.
Data set [2] concerns the target BRD4(2) second bromodomain (Homo sapiens, UniProt O60885). Conditions: cited from earlier work.
The target in data set [3] is BRD2 (Homo sapiens, UniProt P25440). The following applies: cited from earlier work.
The target in data set [4] is BRD3 (Homo sapiens, UniProt Q15059). The following applies: cited from earlier work.
In data set [5] the test system is BET bromodomain. The following applies: read-out: IC50 BET bromodomain; cited from earlier work.
The subject of data set [6] is BET BD1. Conditions: cited from earlier work.
The test system of data set [7] is BET BD2. The following applies: cited from earlier work.
A short description of data set [8]: Stability of synthetic transcription factors on storage, followed by mass spectra. It is filed as physicochemical. Conditions: at 18° C., mass spectra (FIG. 2). As for the experimental part:
In as little as 5 days at 18° C., SynTEF1 begins to break down (FIG. 2).
Other synthetic transcription factors having an ether bond as described herein between the bromodomain binding moiety and the linker also have shown improved stability.

We go through five compounds from US20250340567A1, “Next Generation Synthetic Transcription Factors” (WISCONSIN ALUMNI RESEARCH FOUNDATION, priority 2018, published 2025).

Chain of BRD3 (Q15059 whole entry, species assumed): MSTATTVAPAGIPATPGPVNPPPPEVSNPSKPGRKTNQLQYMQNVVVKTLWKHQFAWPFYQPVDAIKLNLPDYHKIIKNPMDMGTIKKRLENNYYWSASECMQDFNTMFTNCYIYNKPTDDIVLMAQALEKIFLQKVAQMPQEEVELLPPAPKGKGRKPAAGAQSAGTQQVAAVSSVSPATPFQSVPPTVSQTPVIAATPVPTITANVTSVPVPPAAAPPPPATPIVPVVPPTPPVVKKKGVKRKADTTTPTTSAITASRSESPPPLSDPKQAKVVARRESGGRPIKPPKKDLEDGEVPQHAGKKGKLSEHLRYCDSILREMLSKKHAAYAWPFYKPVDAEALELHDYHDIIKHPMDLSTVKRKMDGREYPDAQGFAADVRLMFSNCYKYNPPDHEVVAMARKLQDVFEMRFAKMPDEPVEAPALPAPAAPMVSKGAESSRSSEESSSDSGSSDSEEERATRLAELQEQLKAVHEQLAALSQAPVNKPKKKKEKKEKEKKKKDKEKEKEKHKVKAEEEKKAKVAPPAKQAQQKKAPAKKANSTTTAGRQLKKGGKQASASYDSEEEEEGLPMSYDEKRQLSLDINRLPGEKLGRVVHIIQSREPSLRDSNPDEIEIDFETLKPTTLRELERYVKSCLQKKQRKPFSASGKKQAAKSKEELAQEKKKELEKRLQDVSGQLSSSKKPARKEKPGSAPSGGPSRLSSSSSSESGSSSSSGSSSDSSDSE
Chain of BRD2 (P25440 whole entry, species assumed): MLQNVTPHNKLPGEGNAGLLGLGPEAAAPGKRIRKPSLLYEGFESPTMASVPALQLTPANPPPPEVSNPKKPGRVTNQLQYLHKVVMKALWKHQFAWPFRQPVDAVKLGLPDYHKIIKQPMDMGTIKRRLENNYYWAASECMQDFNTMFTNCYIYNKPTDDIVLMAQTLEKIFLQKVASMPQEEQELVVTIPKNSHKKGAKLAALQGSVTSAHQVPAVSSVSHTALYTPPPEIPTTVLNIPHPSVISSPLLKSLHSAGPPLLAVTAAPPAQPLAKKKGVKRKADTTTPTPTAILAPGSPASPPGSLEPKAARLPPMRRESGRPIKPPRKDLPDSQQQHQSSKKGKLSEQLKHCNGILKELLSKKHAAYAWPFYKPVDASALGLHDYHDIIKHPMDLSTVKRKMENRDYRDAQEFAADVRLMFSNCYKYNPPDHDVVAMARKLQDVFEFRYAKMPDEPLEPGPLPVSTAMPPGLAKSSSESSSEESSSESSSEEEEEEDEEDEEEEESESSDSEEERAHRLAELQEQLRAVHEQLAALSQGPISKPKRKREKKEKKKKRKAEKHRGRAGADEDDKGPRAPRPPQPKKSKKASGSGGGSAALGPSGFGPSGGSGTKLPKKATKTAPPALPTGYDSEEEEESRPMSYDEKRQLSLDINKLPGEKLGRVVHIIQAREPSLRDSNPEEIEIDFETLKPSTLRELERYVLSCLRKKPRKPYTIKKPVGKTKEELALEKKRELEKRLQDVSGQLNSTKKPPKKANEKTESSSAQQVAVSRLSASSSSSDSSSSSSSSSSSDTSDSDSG

Consider `Cc1sc2c(c1C)C(c1ccc(Cl)cc1)=N[C@@H](CC(=O)NC(C)(C)C)c1nnc(C)n1-2` [(+)-JQ1], for which the results for the IC50 in data set [1] and in data set [2] were 77 nM and 33 nM, respectively.
As for `CC(=O)N1c2ccc(-c3ccc(C(=O)O)cc3)cc2[C@H](Nc2ccc(Cl)cc2)C[C@@H]1C` [I-BET726], the IC50 is 41 nM in data set [3] and 31 nM in data set [4].
Take `CCNC(=O)C[C@@H]1N=C(c2ccc(Cl)cc2)c2cc(OC)ccc2-n2c(C)nnc21` [I-BET762]: the IC50 in data set [5] is 32.5 to 42.5 nM.
Regarding `COc1cc(OC)c2c(=O)[nH]c(-c3cc(C)c(OCCO)c(C)c3)nc2c1` [RVX208], the values for the IC50 in data set [6] and in data set [7] were 87000 nM and 510 nM, respectively.
With `Cc1sc2c(c1C)C(c1ccc(Cl)cc1)=N[C@@H](CC(=O)NCCOCCOCCOCCOCCOCCOCCC(=O)NCCCN(C)CCCNC(=O)CCNC(=O)c1nc(NC(=O)CCNC(=O)c3cc(NC(=O)c4nc(NC(=O)CCNC(=O)c5cc(NC(=O)c6nccn6C)cn5C)cn4C)cn3C)cn1C)c1nnc(C)n1-2` [SynTEF1], the “time at which the compound begins to break down” value in data set [8] is given as at most 5 days.

The IC50 is the concentration at which inhibition is half-maximal.
